Measured values from patent US12606534B2, “Method for the treatment of keratin materials using acid, ester or amide C-glycoside derivatives, and cosmetic composition containing same” (L'OREAL, priority 2016, dated 2026).

System: normal human melanocytes
Test: Depigmenting activity (reduction of melanin production) in normal human melanocytes in vitro
Format: cell-based
Details: compound at 100 μM, 72 hours incubation, optical density (amount of melanin)
Method: The depigmenting activity (reduction of melanin production) of compounds of formula (I) was measured by assay in normal human melanocytes in vitro as follows.
First, normal human melanocytes are cultured and distributed in a multiple-well plate.
After 24 hours, the culture medium was replaced with a medium containing the compounds of formula (I) to be evaluated. The cells were incubated for 72 hours before measuring the final optical density, which measures the amount of melanin produced by the melanocytes. The measurement was calibrated and the compounds were tested at 100 μM.
Various test runs were performed and the results are collated in the following tables.

Compound: O=C(O)C[C@@H]1O[C@H](CO)[C@@H](O)[C@H](O)[C@H]1O [Compound 2]
- % depigmentation at 100 μM, Run 2 (Run 2): 29%

Compound: C[C@@H]1OC(CC(=O)N(C)C)[C@H](O)[C@H](O)[C@H]1O (stereo partly drawn) [Compound 4]
- % depigmentation at 100 μM, Run 1 (Run 1): 15%

Compound: CC(=O)OC[C@H]1OC(CC(=O)O)[C@H](OC(C)=O)[C@@H](OC(C)=O)[C@@H]1OC(C)=O (stereo partly drawn) [Compound 1]
- % depigmentation at 100 μM, Run 3 (Run 3): 24%
